In patent US9644005B2, “Didemnin biosynthetic gene cluster in Tistrella mobilis” (King Abdullah University of Science and Technology, priority 2011, dated 2017):

How the values were obtained:
[1] = system: HCT-116 human colon carcinoma cell; assay: Cytotoxic activity using HCT-116 human colon carcinoma cell; format: cell-based; conditions: compounds purified by semi-preparative HPLC; cell line not restated
[2] = phase II human clinical trials; cited from earlier work
murine leukemia cells = conditions: cited from earlier work
[3] = system: herpes simplex virus type 1; conditions: DNA and RNA viruses such as herpes simplex virus type 1; cited from earlier work

Row | Compound | concentration at which strong cytotoxic activity was shown [1] | toxicity in human subjects [2] | activity against murine leukemia cells (murine leukemia cells) | antiviral activity [3]
1 | nordidemnin B | 0.074 ng/mL | – | – | –
2 | CC[C@H](C)[C@H]1NC(=O)[C@@H](NC(=O)[C@@H](CC(C)C)N(C)C(=O)[C@@H]2CCCN2C(=O)C(C)O)[C@@H](C)OC(=O)[C@H](Cc2ccc(OC)cc2)N(C)C(=O)[C@@H]2CCCN2C(=O)[C@H](CC(C)C)NC(=O)[C@@H](C)C(=O)[C@H](C(C)C)OC(=O)C[C@@H]1O (some centres unmarked) [didemnin B] | 0.074 ng/mL | high toxicity | strong activity | strong antiviral agent
